# In patent publication US4325946A, “Anthracycline glycosides, their preparation, use and compositions thereof” (Farmitalia Carlo Erba S.p.A., priority 1979, dated 1982):
# Structures can show the parent of a compound that is named as a salt.
# Assays:
# HeLa cells = assay: Effect on HeLa cells cloning efficiency in vitro; format: cell-based; details: HeLa cells exposed 24 hours, then plated, colonies evaluated 5 days later; for IC50: Homo sapiens, read-out: ID50 (the source's name)
# Protocol: (§1) The new compounds according to the invention were tested in HeLa cells in vitro (time of exposure to the drugs: 24 hours) and on P-388 ascitic leukemia in mice in comparison with daunorubicin (daunomycin) and doxorubicin (adriamycin).
# Effect on HeLa Cells Cloning Efficiency In Vitro^(a)
# ^(a) HeLa cells were exposed to the test compounds for 24 hours, then
# plated. The number of colonies was evaluated 5 days later.
# P-388 ascitic leukemia = assay: Activity on ascitic P-388 leukemia in mice; format: in vivo; details: for Toxic Deaths: macroscopic autoptic findings
# Protocol: as §1
# Activity on Ascitic P-388 Leukemia in Mice
# ^(a) Mice were treated i.p. on day 1 after tumor cell inoculation.
# ^(b) Median survival time of treated mice/median survival time of
# ^(c) Evaluated on the basis of macroscopic autoptic findings.
# ^(d) Longtime survival.
compound,measurement,setting,value
4'-C-methyl-daunorubicin [I-A],ID50,HeLa cells,35 ng/mL
same,T/C (median survival time of treated mice/control mice × 100),P-388 ascitic leukemia; 10 mg/Kg i.p. on day 1,150%
same,Toxic Deaths,P-388 ascitic leukemia; 10 mg/Kg i.p. on day 1,0/10
same,T/C (median survival time of treated mice/control mice × 100),P-388 ascitic leukemia; 20 mg/Kg i.p. on day 1,155%
same,Toxic Deaths,P-388 ascitic leukemia; 20 mg/Kg i.p. on day 1,0/10
4'-epi-4'-C-methyl-daunorubicin [I-C],ID50,HeLa cells,2.8 ng/mL
same,T/C (median survival time of treated mice/control mice × 100),P-388 ascitic leukemia; 0.29 mg/Kg i.p. on day 1,140%
same,Toxic Deaths,P-388 ascitic leukemia; 0.29 mg/Kg i.p. on day 1,0/10
same,T/C (median survival time of treated mice/control mice × 100),P-388 ascitic leukemia; 0.44 mg/Kg i.p. on day 1,163%
same,Toxic Deaths,P-388 ascitic leukemia; 0.44 mg/Kg i.p. on day 1,0/10
same,T/C (median survival time of treated mice/control mice × 100),P-388 ascitic leukemia; 0.66 mg/Kg i.p. on day 1,158%
same,Toxic Deaths,P-388 ascitic leukemia; 0.66 mg/Kg i.p. on day 1,1/20
4'-epi-4'-C-methyl-doxorubicin [I-D],ID50,HeLa cells,0.62 ng/mL
same,T/C (median survival time of treated mice/control mice × 100),P-388 ascitic leukemia; 1 mg/Kg i.p. on day 1,150%
same,Toxic Deaths,P-388 ascitic leukemia; 1 mg/Kg i.p. on day 1,0/10
same,T/C (median survival time of treated mice/control mice × 100),P-388 ascitic leukemia; 2 mg/Kg i.p. on day 1,156%
same,Toxic Deaths,P-388 ascitic leukemia; 2 mg/Kg i.p. on day 1,0/10
"COc1cccc2c1C(=O)c1c(O)c3c(c(O)c1C2=O)C[C@@](O)(C(C)=O)C[C@@H]3O[C@H]1C[C@H](N)[C@H](O)[C@H](C)O1 [Daunorubicin . HCl, Daunorubicin, reference compound]",IC50,HeLa cells,9 ng/mL
same,T/C (median survival time of treated mice/control mice × 100),P-388 ascitic leukemia; 2.9 mg/Kg i.p. on day 1,175%
same,Toxic Deaths,P-388 ascitic leukemia; 2.9 mg/Kg i.p. on day 1,0/40
same,T/C (median survival time of treated mice/control mice × 100),P-388 ascitic leukemia; 4.4 mg/Kg i.p. on day 1,180%
same,Toxic Deaths,P-388 ascitic leukemia; 4.4 mg/Kg i.p. on day 1,3/39
"COc1cccc2c1C(=O)c1c(O)c3c(c(O)c1C2=O)C[C@@](O)(C(=O)CO)C[C@@H]3O[C@H]1C[C@H](N)[C@H](O)[C@H](C)O1 [Doxorubicin . HCl, Doxorubicin, reference compound]",IC50,HeLa cells,8.4 ng/mL
same,LTS (longtime survival),P-388 ascitic leukemia; 6.6 mg/Kg i.p. on day 1,2/30
same,T/C (median survival time of treated mice/control mice × 100),P-388 ascitic leukemia; 6.6 mg/Kg i.p. on day 1,193%
same,Toxic Deaths,P-388 ascitic leukemia; 6.6 mg/Kg i.p. on day 1,0/30
same,LTS (longtime survival),P-388 ascitic leukemia; 10 mg/Kg i.p. on day 1,5/28
same,T/C (median survival time of treated mice/control mice × 100),P-388 ascitic leukemia; 10 mg/Kg i.p. on day 1,227%
same,Toxic Deaths,P-388 ascitic leukemia; 10 mg/Kg i.p. on day 1,1/28
"COc1cccc2c1C(=O)c1c(O)c3c(c(O)c1C2=O)CC(O)(C(=O)CO)CC3OC1CC(N)C(C)(O)C(C)O1.Cl (stereo not shown) [I-B, 4'-C-methyl-doxorubicin]",ID50,HeLa cells,18 ng/mL
same,T/C (median survival time of treated mice/control mice × 100),P-388 ascitic leukemia; 6 mg/Kg i.p. on day 1,186%
same,Toxic Deaths,P-388 ascitic leukemia; 6 mg/Kg i.p. on day 1,0/10
same,T/C (median survival time of treated mice/control mice × 100),P-388 ascitic leukemia; 7.7 mg/Kg i.p. on day 1,172%
same,Toxic Deaths,P-388 ascitic leukemia; 7.7 mg/Kg i.p. on day 1,0/10
same,LTS (longtime survival),P-388 ascitic leukemia; 10 mg/Kg i.p. on day 1,3/20
same,T/C (median survival time of treated mice/control mice × 100),P-388 ascitic leukemia; 10 mg/Kg i.p. on day 1,233%
same,Toxic Deaths,P-388 ascitic leukemia; 10 mg/Kg i.p. on day 1,2/20
